Laboratory results as given in patent US11883492B2, “Combination treatment of chemoresistant cancers” (THE REGENTS OF THE UNIVERSITY OF CALIFORNIA, priority 2018, dated 2024).

Columns and labels:
AKT, BMI1 = experiment: Wnt5a-induced AKT activation and BMI1 expression (immunoblot); type: cell-based; conditions: wt-Hs578T
Protocol: FIGS. 8A-8B. The figures show Enhanced BMI1 Expression Induced By Wnt5a Is Dependent On Activation Of AKT. (FIG. 8A), BMI1 mRNA level in Hs578T cells treated with Wnt5a at 100 ng/ml at indicated time point were examined by quantitative PCR (qPCR). Data shown were the mean expression levels of BMI1 relative to time 0 samples in triplicate and normalized with respect to GAPDH. Error bars indicate SEM. (FIG. 8B), Hs578T cells were cultured in serum-free medium, pre-treated with or without MK-2206 for 3 hours, and then stimulated with or without Wnt5a at 100 ng/ml for 6 hours. BMI1, pAKT and AKT were examined on these samples via immunoblot analyses. Numbers below the row for AKT provide the ratios of band densities of pAKT to AKT that were normalized to that of samples treated for 0 minutes with Wnt5a. β-Actin served as protein-loading control. Numbers below the row for BMI1 provide the ratios of band densities of BMI1 to β-Actin, normalized with respect to that of samples treated for 0 minutes with Wnt5a.
Immunoblot analyses. Cells used for examination for proteins via immunoblot analysis were treated with control antibody or cirmtuzumab (50 μg/ml) for overnight and then were cultured in medium supplemented with or without recombinant Wnt5a (100 ng/ml). […] The protein concentration was determined using a bicinchoninic acid protein assay (Pierce). […]

PDX4 or PDX5 = experiment: CSC features (ALDH1, spheroids, Matrigel invasion, re-engraftment) of PDX tumors from paclitaxel-treated mice; type: in vivo, Rag2−/−γc−/− mice
Protocol: (§1) Tumorigenicity Assay. Cells were suspended in Mammary-Epithelial Growth Medium (MEGM), mixed with Matrigel (BD Biosciences, San Diego, CA) at a 1:1 ratio, and then transplanted into the mammary pads of Rag2−/−γc−/− mice. We monitored the mice weekly for the development of tumors. We extirpated the tumor to examine the tumor cells for expression of ROR1 at 10 days after treatment with 13.4 mg/kg paclitaxel via intravenously injection for consecutive 5 days. To examine for metastases, we harvested the lungs of 6 mice from each treatment group at 42 or 48 days post-transplantation and fixed the tissue with 10%-formalin, prior to embedding in paraffin. Each paraffin block was cut into 200-μm sections. Tumor foci were scored in a blinded fashion by a board-certified pathologist. To test whether cirmtuzumab alone or in combination with paclitaxel impaired engraftment of primary breast tumor cells, 1×10^5 single cells isolated from PDX4 or PDX5 were injected into the mammary pads of 4- to 6-week-old Rag2−/−γc−/− mice. When tumor size reached 300 mm3, 13.4 mg/kg paclitaxel was injected intravenously for consecutive 5 days or/and 10 mg/kg of cirmtuzumab was injected intravenously at day 0, day 7 and then biweekly.
(§2) Flow cytometry analysis. […]

PDX4 [1] = experiment: Proportion of ROR1+ cells in residual PDX4 tumors after paclitaxel (flow cytometry); type: in vivo, Rag2−/−γc−/− mice; conditions: PDX4, mice treated with paclitaxel 13.4 mg/kg; untreated 4.5%±1.1%
Protocol: as §1, §2

breast cancer PDX = experiment: Capacity of PDX tumor cells from treated mice to form secondary PDX; type: in vivo, Rag2−/−γc−/− mice; conditions: cirmtuzumab 10 mg/kg, paclitaxel 13.4 mg/kg or both (FIG. 5C)
Source text: (§3) Patient-Derived xenografts. Four-to-eight-week-old female Rag2−/−γc−/− mice were used in this study following the care and use of laboratory animal guidelines of National Institutes of Health (NIH). The UC San Diego Medical Experimental Animal Care Committee approved the study protocol. The mice were housed in laminar-flow cabinets under specific pathogen-free conditions and fed ad libitum. The PDX were established using mechanically minced fresh breast cancer specimens. Early passage (P1-P5) of primary tumor tissues from these PDX models were mechanically minced, enzymatically and mechanically dissociated using GentleMACS Dissociator (Miltenyi Biotec), in accordance to the manufacturer's instruction. Erythrocytes were removed via density gradient centrifugation in Percoll™ Plus (GE Healthcare Life Sciences, CC-17-5442-01).
Tumorigenicity Assay. Cells were suspended in Mammary-Epithelial Growth Medium (MEGM), mixed with Matrigel (BD Biosciences, San Diego, CA) at a 1:1 ratio, and then transplanted into the mammary pads of Rag2−/−γc−/− mice. We monitored the mice weekly for the development of tumors. We extirpated the tumor to examine the tumor cells for expression of ROR1 at 10 days after treatment with 13.4 mg/kg paclitaxel via intravenously injection for consecutive 5 days. […] Tumor foci were scored in a blinded fashion by a board-certified pathologist. […]

tumor cells from PDX4 = experiment: Cytotoxicity of paclitaxel on PDX tumor cells in vitro after cirmtuzumab or hIgG; type: cell-based; conditions: Homo sapiens
Protocol: FIG. 10. […] Single cell suspension of PDX4 or PDX5 samples were treated with cirmtuzumab or control antibody with or without increasing concentration of paclitaxel for 24 hours. Data are shown as the mean (±SEM) percentage of viable cells of triplicated samples from each of the treatments as determined by flow cytometry analysis. An asterisk indicates P<0.05 and ** indicates P<0.01 as determined by Student's t-Test.
We treated equivalent numbers of tumor cells from PDX4 or PDX5 with cirmtuzumab or control hIgG at 50 μg/ml overnight and then cultured the cells in separate wells in triplicate with increasing concentrations of paclitaxel.

PDX5 [2] = experiment: Tumorigenicity (re-engraftment) assay with tumor cells of PDX5 removed from treated mice; type: in vivo, Rag2−/−γc−/− mice; conditions: for Tumor incidence (mice with tumors/mice implanted): cells isolated from PDX5 of paclitaxel-treated mice (Table 6, FIG. 2E)
Source text: as §3, §1

[3] = test system: breast cancer PDX (PDX4, PDX5); experiment: Tumor growth of breast-cancer PDX in mice; type: in vivo, Rag2−/−γc−/− mice
Source text: as §3
as §1, with “When tumor size reached 300 mm3, 13.4 mg/kg paclitaxel was injected intravenously for consecutive 5 days or/and 10 mg/kg of cirmtuzumab was injected intravenously at day 0, day 7 and then biweekly.” left out
Control groups were injected with hIgG instead of cirmtuzumab. The tumor volume (v) was determined using the formula v=(length)×(width)2×0.4.

PDX4 [4] = experiment: Tumorigenicity (re-engraftment) assay with tumor cells of PDX4 removed from treated mice; type: in vivo, Rag2−/−γc−/− mice; conditions: for Tumor incidence (mice with tumors/mice implanted): cells isolated from PDX4 of paclitaxel-treated mice (Table 6, FIG. 2E)
Source text: as §3, §1

PDX5 [5] = experiment: Proportion of ROR1+ cells in residual PDX5 tumors after paclitaxel (flow cytometry); type: in vivo, Rag2−/−γc−/− mice; conditions: PDX5, mice treated with paclitaxel 13.4 mg/kg; untreated 8.5%±5.8%
Protocol: as §1, §2

## NC1(c2ccc(-c3nc4ccn5c(=O)[nH]nc5c4cc3-c3ccccc3)cc2)CCC1 [MK-2206]
AKT, BMI1
  Wnt5a-enhanced expression of BMI1: inhibited the capacity of Wnt5a to enhance expression of BMI1
  Wnt5a-induced activation of AKT: impaired the capacity of Wnt5a to induce activation of AKT

## CC(=O)O[C@H]1C(=O)[C@@]2(C)[C@H]([C@H](OC(=O)c3ccccc3)[C@]3(O)C[C@H](OC(=O)[C@H](O)[C@@H](NC(=O)c4ccccc4)c4ccccc4)C(C)=C1C3(C)C)[C@]1(OC(C)=O)CO[C@@H]1C[C@@H]2O [paclitaxel]
PDX4 or PDX5; versus matched tumors of untreated mice or the original PDX (FIG. 2C-2E)
  Cells able to form spheroids, invade Matrigel or re-engraft in tumors of treated mice: enriched for cells that could form spheroids, invade Matrigel, or re-engraft
PDX4 or PDX5; versus matched tumors of untreated mice or the original PDX (FIG. 7J)
  Proportion of ALDH1-expressing cells in tumors of treated mice: higher proportions of ALDH1-expressing cells
PDX4 [1]
  Proportion of ROR1+ cells in residual tumors: 61.7%±7.0%
Breast cancer PDX
  Capacity of tumor cells of PDX that relapsed after therapy to re-engraft immune-deficient mice: readily developed secondary PDX
Tumor cells from PDX4; with cirmtuzumab 50 μg/ml overnight (FIG. 10)
  IC50: 1 ± 1 µM
Tumor cells from PDX4; with non-specific hIgG 50 μg/ml overnight (FIG. 10)
  IC50: 23 ± 1 µM
PDX5 [2]; 1 × 10^4 cells from PDX5 that relapsed after therapy (Table 8, FIG. 5C)
  Mice that developed PDX/mice engrafted: 3/3
PDX5 [2]; 1 × 10^5 cells from PDX5 that relapsed after therapy (Table 8, FIG. 5C)
  Mice that developed PDX/mice engrafted: 4/5
PDX5 [2]; 10^3 cells re-implanted
  Tumor incidence (mice with tumors/mice implanted): 4/5
PDX5 [2]; 10^4 cells re-implanted
  Tumor incidence (mice with tumors/mice implanted): 5/5
PDX5 [2]; PDX5 from paclitaxel-treated mice, ELDA software (Table 6)
  Frequency of Tumorigenic Cell: 1/622
[3]; 13.4 mg/kg for five consecutive days when PDX reached 300 mm^3 (FIG. 2A)
  Tumor response of secondary PDX: tumor regression
[3]; cirmtuzumab 10 mg/kg, paclitaxel 13.4 mg/kg or the combination (FIG. 5A)
  Tumor growth / tumor volumes in PDX4- or PDX5-bearing mice: inhibited tumor growth relative to that of control-treated animals
[3]; tumors derived from PDX with high proportions of ROR1+ cells (e.g. PDX4 or PDX5), 13.4 mg/kg for five days
  Tumor regrowth after therapy: re-grew shortly after therapy
PDX4 [4]; 1 × 10^4 cells from PDX4 that relapsed after therapy (Table 8, FIG. 5C)
  Mice that developed PDX/mice engrafted: 5/5
PDX4 [4]; 1 × 10^5 cells from PDX4 that relapsed after therapy (Table 8, FIG. 5C)
  Mice that developed PDX/mice engrafted: 5/5
PDX4 [4]; 10^3 cells re-implanted
  Tumor incidence (mice with tumors/mice implanted): 4/5
PDX4 [4]; 10^4 cells re-implanted
  Tumor incidence (mice with tumors/mice implanted): 5/5
PDX4 [4]; PDX4 from paclitaxel-treated mice, ELDA software (Table 6)
  Frequency of Tumorigenic Cell: 1/622
PDX5 [5]
  Proportion of ROR1+ cells in residual tumors: 56.4%±6.4%
